This is an account of results in US7468376B2, “Pyrazolopyridine derivates” (Palau Pharma, S.A., priority 2003, dated 2008).

SMILES strings stand for the structures.

One may read the inhibition as the drop in the measured response relative to a control, in per cent. Low readings indicate a response near the control, high ones a response far below the control. In general, % Inhibition refers to the share of the control response that was lost under treatment. A low value points to a weak effect.

The first assay deals with TNF-α release induced by LPS in human peripheral blood mononuclear cells. Briefly: Test 2: Inhibition of TNF-α release induced by LPS in human peripheral blood mononuclear cells. The format is cell-based. Particulars: Homo sapiens, PBMC, test product at 0.1 μM, LPS 400 ng/mL, 19 h, TNF-α in supernatant by ELISA. The method, then: Test 2: Inhibition of TNF-α Release Induced by LPS in Human Peripheral Blood Mononuclear Cells
To obtain the mononuclear cells: heparinized venous blood, obtained from healthy volunteers, is diluted with an equal volume of saline phosphate buffer without calcium or magnesium. Aliquots of 30 mL of the mixture are transferred to 50 mL centrifuge tubes containing 15 mL of Ficoll-Hypaque (1.077 g/mL). The tubes are centrifuged at 1200×g for 20 min at room temperature without braking. Approximately two-thirds of the band of platelets lying above the mononuclear cells is removed with a pipette. The mononuclear cells are carefully transferred to a 50 mL tube, washed twice with saline phosphate buffer, centrifuged at 300×g for 10 min at room temperature and resuspended in RPMI supplemented with 1% inactivated fetal bovine serum at a cell density of 2×10^6 cells/mL.
Inhibition of TNF-α release: 100 μL of mononuclear cells (2×10^6 cells/mL) are incubated on 96-well plates with 50 μL of the test product (final concentration, 0.001-10 μM) and 50 μL LPS (E. coli 055B5, Sigma) at a final concentration of 400 ng/mL for 19 h at 37° C. in an atmosphere with CO2 at 5%. The amount of TNF-α released in the supernatant is quantified using a commercial ELISA kit (Biosource International).
Background: An ELISA detects its analyte on a solid surface through an enzyme-linked reagent.
`OCCn1cc2cc(-c3ccnc(NCC4CC4)n3)c(-c3ccc(F)cc3)nc2n1` [Example 211, 2-[5-[2-[(Cyclopropylmethyl)-amino]pyrimidin-4-yl]-6-(4-fluorophenyl)pyrazolo[3,4-b]pyridin-2-yl]ethanol] came in with an inhibition at 0.1 µM of 70.6%. On the same count and under the same terms, in the case of `OCCCn1cc2cc(-c3ccnc(NCC4CC4)n3)c(-c3ccc(F)cc3)nc2n1` [Example 212, 3-[5-[2-[(Cyclopropylmethyl)-amino]pyrimidin-4-yl]-6-(4-fluorophenyl)pyrazolo[3,4-b]pyridin-2-yl]propan-1-ol] it was 67.5%; in that of `OCCCn1cc2c(-c3ccc(F)cc3)c(-c3ccnc(NCC4CC4)n3)c(-c3ccc(F)cc3)nc2n1` [Example 213, 3-[5-[2-[(Cyclopropylmethyl)amino]-pyrimidin-4-yl]-4,6-bis(4-fluorophenyl)pyrazolo[3,4-b]pyridin-2-yl]propan-1-ol], 68.1%; in that of `Cn1cc2c(-c3ccc(F)cc3)c(-c3ccnc(Nc4ccc(S(N)(=O)=O)cc4)c3)c(-c3ccc(F)cc3)nc2n1` [Example 214, 4-[4-[4,6-Bis(4-fluorophenyl)-2-methylpyrazolo[3,4-b]pyridin-5-yl]pyridin-2-ylamino]benzenesulfonamide], 71.1%. Same read-out and setting: under `Fc1ccc(-c2nc3[nH]ncc3c(-c3cc[nH]n3)c2-c2ccncc2)cc1` [Example 217, 6-(4-Fluorophenyl)-4-(1H-pyrazol-3-yl)-5-(4-pyridyl)-1H-pyrazolo[3,4-b]pyridine] stands 53.8%. Turning to `OCCNCCn1cc2c(-c3ccccc3)c(-c3ccncc3)c(-c3ccccc3)nc2n1` [Example 232, 2-[2-(4,6-Diphenyl-5-(4-pyridyl)pyrazolo[3,4-b]pyridin-2-yl)ethylamino]ethanol], testing at 0.1 µM gave an inhibition of 67.9%. On the same count and under the same terms, in the case of `CC(=O)NCCCn1cc2c(-c3ccc(F)cc3)c(-c3ccncc3)c(-c3ccc(F)cc3)nc2n1` [Example 240, N-[3-[4,6-Bis(4-fluorophenyl)-5-(4-pyridyl)pyrazolo[3,4-b]pyridin-2-yl]propyl]acetamide] it was 58.4%; in that of `O=C(NCCn1cc2c(-c3ccc(F)cc3)c(-c3ccncc3)c(-c3ccc(F)cc3)nc2n1)C1CCNCC1` [Example 248, N-[2-[4,6-Bis(4-fluorophenyl)-5-(4-pyridyl)pyrazolo[3,4-b]pyridin-2-yl]ethyl]piperidine-4-carboxamide], 53.2%. On the same count and under the same terms, under `O=C(CNCCO)NCCn1cc2c(-c3ccc(F)cc3)c(-c3ccncc3)c(-c3ccc(F)cc3)nc2n1` [Example 250, N-[2-[4,6-Bis(4-fluorophenyl)-5-(4-pyridyl)pyrazolo[3,4-b]pyridin-2-yl]ethyl]-2-(2-hydroxyethylamino)acetamide] stands 67%. Same read-out and setting: under `CC(=O)Nc1n[nH]c2nc(-c3ccc(F)cc3)c(-c3ccnc(NCC4CC4)n3)cc12` [Example 268, N-[5-[2-[(Cyclopropylmethyl)amino]pyrimidin-4-yl]-6-(4-fluorophenyl)-1H-pyrazolo[3,4-b]pyridin-3-yl]acetamide] stands 69.1%; under `Cc1ccc(-c2c(-c3ccncc3)c(-c3ccc(F)cc3)nc3nn(CCCO)cc23)o1` [Example 272, 3-[6-(4-Fluorophenyl)-4-(5-methylfuran-2-yl)-5-(4-pyridyl)-pyrazolo[3,4-b]pyridin-2-yl]propan-1-ol], 65.6%; under `Cc1n[nH]c2nc(-c3ccc(F)cc3)c(-c3ccnc(N[C@@H](C)c4ccccc4)n3)cc12` [Example 279, (1S)-N-(1-Phenylethyl)-[4-[6-(4-fluorophenyl)-3-methyl-1H-pyrazolo[3,4-b]pyridin-5-yl]pyrimidin-2-yl]amine], 100%. With `CC(CO)Nc1nccc(-c2cc3cn(C)nc3nc2-c2ccc(F)cc2)n1` (centres unmarked) [Example 283, 2-[4-[6-(4-Fluorophenyl)-2-methylpyrazolo[3,4-b]pyridin-5-yl]pyrimidin-2-ylamino]propan-1-ol], 0.1 µM produced 52.4% inhibition.

In turn, `OCCCNc1nccc(-c2cc3cn[nH]c3nc2-c2cccc(C(F)(F)F)c2)n1` [Example 287, 3-[4-[6-(3-Trifluoromethylphenyl)-1H-pyrazolo[3,4-b]pyridin-5-yl]pyrimidin-2-ylamino]propan-1-ol] showed an inhibition at 0.1 µM of 71.2%. The same measure, in the same setting: in the case of `CCNc1nccc(-c2cc3cn[nH]c3nc2-c2cccc(C(F)(F)F)c2)n1` [Example 289, N-Ethyl-[4-[6-(3-trifluoromethyl-phenyl)-1H-pyrazolo[3,4-b]pyridin-5-yl]pyrimidin-2-yl]amine] it was 51.3%.

For the compound `FC(F)(F)c1cccc(-c2nc3[nH]ncc3cc2-c2ccnc(NCc3ccccc3)n2)c1` [Example 290, N-Benzyl-[4-[6-(3-trifluoromethyl-phenyl)-1H-pyrazolo[3,4-b]pyridin-5-yl]pyrimidin-2-yl]amine], at 0.1 µM the inhibition was 65.8%.

The assay is the same for the next values; noted with them: test product at 0.1 μM, LPS 400 ng/mL, 19 h, TNF-α in supernatant by ELISA.
For the compound `c1ccc(-c2nc3[nH]ncc3cc2-c2ccnc(NCC3CC3)n2)cc1` [Example 282, N-Cyclopropylmethyl-4-[6-[phenyl-1H-pyrazolo[3,4-b]pyridin-5-yl]pyrimidin-2-yl]amine], the “% Inhibition at 0.1 μM” value is on record as 65.2%.
